In patent publication US10987324B2, “Methods and compositions for the treatment of seizure-related disorders” (Adamas Pharmaceuticals, Inc., priority 2015, dated 2021):

What was measured:
[1] = Brivaracetam plasma pharmacokinetics, ER infusion vs IP bolus in rats (Example 16); assay type: in vivo; details: PK satellite rats
Protocol: To reproduce the plasma profile of ER brivaracetam (ER profile, group 2), rats are administered brivaracetam as a continuous infusion into the intraperitoneal (IP) space. […] Control animals (group 1) are infused with vehicle using the same infusion protocol. […] Control animals (group 3) were implanted with pumps containing vehicle and were given an IP bolus of vehicle.
In order to fully elucidate the plasma concentration-time profile of brivaracetam administered by the ER and IR protocols, two groups of PK satellite rats are administered brivaracetam using identical protocols to groups 2 and 4 above to reproduce the ER and IR profiles, respectively. Blood is collected at varying time points and the plasma brivaracetam concentrations are determined. No rotarod testing is performed on the PK satellite rats.

[2] = cited from earlier work
[3] = system: motor coordination in rats; test: Rotarod, ER profile vs IR profile of brivaracetam in rats (Example 16); assay type: in vivo
Protocol: The primary objective of this study is to compare the CNS side effects of brivaracetam when delivered as a continuous infusion to rats to simulate an extended release (ER) plasma profile or as a bolus to simulate an immediate release (IR) plasma profile. It is hypothesized that reducing the rate of rise of plasma concentrations with the ER profile compared to the IR profile results in reduced CNS impairment. CNS side effects are measured as an impairment of motor coordination in rodents using the rotarod. The rotarod (Ugo Basile, Italy) is a device that allows for quantitative measurement of motor coordination in rodents. Animals experiencing CNS side effects such as dizziness would fall off the rotarod faster than normal animals.
An acceleration protocol is used for training and test sessions, wherein the rotarod is accelerated from 0-40 rpm over a 5 minute session. All rats are then surgically implanted subcutaneously with programmable pumps (iPRECIO, Durect Corporation, Cupertino, Calif.), per the manufacturer's instructions, under anesthesia and using aseptic techniques.
Three days following pump implantation surgery, all rats are tested on the rotarod to obtain baseline performance values. […]
Animals that stay on the rotarod for the entire session are assigned a run-time of 300 seconds. The time that each animal stays on the rotarod prior to falling is automatically recorded. […]

## CCC[C@@H]1CC(=O)N([C@@H](CC)C(N)=O)C1 [brivaracetam, (2S)-2-[(4R)-2-oxo-4-propylpyrrolidin-1-yl]butanamide]
[1]
  rate of rise of plasma concentration, ER profile as % of IR profile: < 10%
[2]; human
  elimination / plasma / pharmacokinetic half-life: 7 to 8 h
[2]; in vivo
  fraction of dose unchanged in urine: 5-8%
[2]; oral dosing, human
  Tmax: approximately 2 hours
[3]; ER profile
  change from baseline in time on the rotarod vs vehicle: not different between brivaracetam treated and vehicle animals
[3]; IR profile, IP bolus
  change in time on the rotarod vs vehicle: greater reduction in time on the rotarod than matched vehicle controls
